Measurements taken from article PMC10012049, “Synthesis, α-mannosidase inhibition studies and molecular modeling of 1,4-imino-ᴅ-lyxitols and their C-5-altered N-arylalkyl derivatives” (Beilstein Journal of Organic Chemistry, 2023).
Read-outs that look alike come from different tables or passages of the source. Marks after values point to notes of the source that are not given here.

Experiments:
[1] = biological target: T1, AMAN-2 (Golgi α-mannosidase II) (Caenorhabditis elegans, UniProt Q2PJ74); experiment: α-mannosidase inhibition assay with pNP-Man substrate, AMAN-2; type: biochemical; conditions: for Selectivity index, SI [Ki (JBMan)/Ki (AMAN-2)]: ratio of Ki values; for SI [IC50 (JBMan)/IC50 (AMAN-2)]: ratio of IC50 values; for times more potent toward AMAN-2 than DIM: relative to DIM
Text: (§1) The enzymes screened included two Golgi types (GMIIb and AMAN-2) and two lysosomal types (LManII and JBMan) (Table 1).
Recombinant soluble forms of Drosophila melanogaster Golgi (GMIIb) and lysosomal (LManII) α-mannosidases as well as Caenorhabditis elegans Golgi α-mannosidase AMAN-2 were produced in Pichia pastoris and enriched by ammonium sulfate precipitation or nickel chelation chromatography as previously described. The α-mannosidase from Canavalia ensiformis (JBMan) was purchased from Sigma. The mannosidase activity of these enzyme preparations were measured using p-nitrophenyl α -D-mannopyranoside ( pNP-Man; Sigma; 100 mM stock in dimethylsulfoxide) as a substrate at 2 mM final concentration in 50 mM acetate buffer of the relevant previously defined optimal pH, GMIIb and AMAN -2 at pH 6.0, LManII at pH 5.2 , and JBMan at pH 5.0) and 0.5 μL of the enzyme (0.05 µg of protein for JBMan), in a total volume of 50 μL for 1–2 h at 37 °C. GMIIb was assayed in the presence of 0.5 mM CoCl2.
(§2) The lyophilized derivatives used in the assay were dissolved in DMSO to the final concentration 50 mM and further diluted to a desired concentration in water. These derivatives were preincubated with the enzyme in the buffer for 5 min at rt and the reaction was started by addition of the substrate. The reactions were terminated with two volumes (0.1 mL) of 0.5 M sodium carbonate and the production of p-nitrophenol was measured at 405 nm using a multimode reader Mithras LB943 (Berthold Technologies). The average or representative result of three independent experiments made in duplicate is presented.

[2] = biological target: T1, AMAN-2 (Golgi α-mannosidase II); experiment: as above; type: biochemical; conditions: Dixon plots, pNP-Man 0.5-4 mM, pH 6.0
[3] = biological target: T2, GMIIb (Golgi α-mannosidase) (Drosophila melanogaster, UniProt Q9VF33); experiment: α-mannosidase inhibition assay with pNP-Man substrate, GMIIb; type: biochemical; conditions: for Ki: Dixon plots, pNP-Man 0.5-4 mM, pH 6.0
Text: as §1
(§3) Recombinant soluble forms of Drosophila melanogaster Golgi (GMIIb) and lysosomal (LManII) α-mannosidases as well as Caenorhabditis elegans Golgi α-mannosidase AMAN-2 were produced in Pichia pastoris and enriched by ammonium sulfate precipitation or nickel chelation chromatography as previously described. The α-mannosidase from Canavalia ensiformis (JBMan) was purchased from Sigma. […]
(§4) GMIIb was assayed in the […]
(§5) presence of 0.5 mM CoCl2.
as §2

[4] = biological target: T3, JBMan (Jack bean α-mannosidase) (Canavalia ensiformis, UniProt C0HJB3); experiment: α-mannosidase inhibition assay with pNP-Man substrate, JBMan; type: biochemical; conditions: for IC50: 2 mM pNP-Man, pH 5.0, 37 °C; for Ki: Dixon plots, pNP-Man 0.5-4 mM, pH 5.0
T3 construct: purchased Sigma
T3 sequence (C0HJB3 1-981): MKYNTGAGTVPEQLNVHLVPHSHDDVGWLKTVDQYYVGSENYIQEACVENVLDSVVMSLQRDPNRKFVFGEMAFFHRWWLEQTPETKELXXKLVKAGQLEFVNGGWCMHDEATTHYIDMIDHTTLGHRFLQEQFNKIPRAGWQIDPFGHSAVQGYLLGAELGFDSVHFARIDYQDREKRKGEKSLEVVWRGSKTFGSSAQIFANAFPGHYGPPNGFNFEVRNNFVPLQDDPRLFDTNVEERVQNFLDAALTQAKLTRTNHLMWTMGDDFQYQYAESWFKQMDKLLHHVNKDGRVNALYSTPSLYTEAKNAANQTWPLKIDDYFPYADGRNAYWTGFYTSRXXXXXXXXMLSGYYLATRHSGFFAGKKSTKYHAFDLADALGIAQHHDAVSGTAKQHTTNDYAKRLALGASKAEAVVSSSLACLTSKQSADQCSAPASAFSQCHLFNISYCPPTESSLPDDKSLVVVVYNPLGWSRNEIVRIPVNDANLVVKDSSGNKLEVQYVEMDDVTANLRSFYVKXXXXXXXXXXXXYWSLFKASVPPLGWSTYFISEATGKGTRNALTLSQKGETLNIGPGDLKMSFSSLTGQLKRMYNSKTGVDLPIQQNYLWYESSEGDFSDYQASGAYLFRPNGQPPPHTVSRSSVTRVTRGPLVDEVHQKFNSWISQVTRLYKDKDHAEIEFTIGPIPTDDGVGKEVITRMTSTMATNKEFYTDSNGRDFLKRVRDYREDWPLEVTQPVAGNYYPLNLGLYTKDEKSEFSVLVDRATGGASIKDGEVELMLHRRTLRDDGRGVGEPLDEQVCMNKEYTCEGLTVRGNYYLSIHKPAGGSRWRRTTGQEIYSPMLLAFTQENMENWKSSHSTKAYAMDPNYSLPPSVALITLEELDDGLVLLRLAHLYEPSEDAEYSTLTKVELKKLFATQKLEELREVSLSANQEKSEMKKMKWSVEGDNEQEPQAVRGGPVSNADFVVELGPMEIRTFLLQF
Text: as §1, §3, §4, §5, §2

[5] = biological target: T4, LManII (lysosomal α-mannosidase) (Drosophila melanogaster, UniProt Q9VKV1); experiment: α-mannosidase inhibition assay with pNP-Man substrate, LManII; type: biochemical; conditions: for Ki: Dixon plots, pNP-Man 0.5-4 mM, pH 5.2
Text: as §1, §3, §4, §5, §2

[6] = biological target: T4, LManII (lysosomal α-mannosidase); conditions: ref Kóňa et al. [22]; cited from earlier work
[7] = biological target: T2, GMIIb (Golgi α-mannosidase); conditions: ref Kóňa et al. [22]; cited from earlier work
[8] = biological target: T1, AMAN-2 (Golgi α-mannosidase II); conditions: cited from earlier work; for IC50: ref Kóňa et al. [22]
[9] = biological target: T3, JBMan (Jack bean α-mannosidase); conditions: ref Kóňa et al. [22]; cited from earlier work
[10] = 2 mM pNP-Man, pH 6.0, 37 °C, read-out: IC50 AMAN-2
[11] = 2 mM pNP-Man, pH 6.0, 0.5 mM CoCl2, 37 °C, read-out: IC50 GMIIb
[12] = 2 mM pNP-Man, pH 5.2, 37 °C, read-out: IC50 LManII

T1 sequence (Q2PJ74 entry or part of it): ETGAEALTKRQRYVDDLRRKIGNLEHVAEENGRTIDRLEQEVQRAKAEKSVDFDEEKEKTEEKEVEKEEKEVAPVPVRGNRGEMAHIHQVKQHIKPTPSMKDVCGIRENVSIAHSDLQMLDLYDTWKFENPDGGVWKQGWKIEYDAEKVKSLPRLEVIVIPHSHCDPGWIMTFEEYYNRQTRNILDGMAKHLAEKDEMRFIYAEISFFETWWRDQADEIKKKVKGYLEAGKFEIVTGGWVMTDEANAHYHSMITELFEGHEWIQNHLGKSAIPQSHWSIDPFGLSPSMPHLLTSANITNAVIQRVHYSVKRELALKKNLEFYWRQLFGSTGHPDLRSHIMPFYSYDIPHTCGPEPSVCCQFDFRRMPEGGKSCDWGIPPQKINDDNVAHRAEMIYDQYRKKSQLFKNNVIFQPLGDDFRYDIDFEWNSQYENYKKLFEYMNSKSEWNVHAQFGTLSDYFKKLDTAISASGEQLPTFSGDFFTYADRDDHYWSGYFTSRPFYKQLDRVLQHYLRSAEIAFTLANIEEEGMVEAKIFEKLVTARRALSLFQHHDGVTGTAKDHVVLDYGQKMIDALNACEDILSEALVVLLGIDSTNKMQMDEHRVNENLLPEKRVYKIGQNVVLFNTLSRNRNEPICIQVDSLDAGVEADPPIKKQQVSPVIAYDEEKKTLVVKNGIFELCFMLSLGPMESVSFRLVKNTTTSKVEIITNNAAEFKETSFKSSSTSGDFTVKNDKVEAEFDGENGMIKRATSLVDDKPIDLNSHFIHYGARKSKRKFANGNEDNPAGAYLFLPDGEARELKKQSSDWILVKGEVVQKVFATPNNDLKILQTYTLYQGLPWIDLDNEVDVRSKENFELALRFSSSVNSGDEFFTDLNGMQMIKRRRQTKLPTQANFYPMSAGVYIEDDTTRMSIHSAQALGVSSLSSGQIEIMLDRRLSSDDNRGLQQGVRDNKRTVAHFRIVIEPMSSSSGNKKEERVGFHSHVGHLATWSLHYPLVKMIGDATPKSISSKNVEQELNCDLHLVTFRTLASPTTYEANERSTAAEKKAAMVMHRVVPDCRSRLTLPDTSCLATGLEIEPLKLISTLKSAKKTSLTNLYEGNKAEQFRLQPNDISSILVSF
T2 sequence (Q9VF33 entry or part of it): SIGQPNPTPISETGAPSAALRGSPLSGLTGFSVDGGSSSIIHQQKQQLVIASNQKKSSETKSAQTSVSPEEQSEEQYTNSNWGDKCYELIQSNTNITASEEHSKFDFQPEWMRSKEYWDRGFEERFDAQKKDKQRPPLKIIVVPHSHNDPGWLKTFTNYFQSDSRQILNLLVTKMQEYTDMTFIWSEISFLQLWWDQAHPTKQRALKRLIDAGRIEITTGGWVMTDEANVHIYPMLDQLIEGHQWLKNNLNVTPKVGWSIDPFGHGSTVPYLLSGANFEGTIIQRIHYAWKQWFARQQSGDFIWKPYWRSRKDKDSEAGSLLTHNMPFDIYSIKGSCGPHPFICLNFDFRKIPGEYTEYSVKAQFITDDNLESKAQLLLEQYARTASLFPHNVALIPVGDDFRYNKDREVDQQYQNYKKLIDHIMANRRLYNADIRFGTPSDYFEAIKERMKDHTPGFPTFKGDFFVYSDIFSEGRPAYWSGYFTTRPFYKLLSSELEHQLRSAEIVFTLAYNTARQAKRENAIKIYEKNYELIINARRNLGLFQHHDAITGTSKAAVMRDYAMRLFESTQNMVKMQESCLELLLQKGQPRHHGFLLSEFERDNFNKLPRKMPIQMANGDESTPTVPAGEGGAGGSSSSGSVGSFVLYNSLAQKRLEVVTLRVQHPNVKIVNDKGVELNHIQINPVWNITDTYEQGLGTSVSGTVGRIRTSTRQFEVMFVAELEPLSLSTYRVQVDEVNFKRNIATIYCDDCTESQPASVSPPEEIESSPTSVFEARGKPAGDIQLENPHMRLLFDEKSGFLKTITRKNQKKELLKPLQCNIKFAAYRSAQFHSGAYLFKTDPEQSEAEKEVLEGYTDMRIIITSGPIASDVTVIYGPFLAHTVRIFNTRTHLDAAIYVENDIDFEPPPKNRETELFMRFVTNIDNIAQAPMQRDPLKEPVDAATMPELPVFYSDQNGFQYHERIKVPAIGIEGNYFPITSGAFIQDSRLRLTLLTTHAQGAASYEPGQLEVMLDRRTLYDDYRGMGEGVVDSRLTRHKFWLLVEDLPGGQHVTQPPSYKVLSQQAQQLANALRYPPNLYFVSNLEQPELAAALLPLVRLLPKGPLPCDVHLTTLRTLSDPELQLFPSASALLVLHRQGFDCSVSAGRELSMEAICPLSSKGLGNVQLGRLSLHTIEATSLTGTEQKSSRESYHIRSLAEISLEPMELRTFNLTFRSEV
T4 sequence (Q9VKV1 entry or part of it): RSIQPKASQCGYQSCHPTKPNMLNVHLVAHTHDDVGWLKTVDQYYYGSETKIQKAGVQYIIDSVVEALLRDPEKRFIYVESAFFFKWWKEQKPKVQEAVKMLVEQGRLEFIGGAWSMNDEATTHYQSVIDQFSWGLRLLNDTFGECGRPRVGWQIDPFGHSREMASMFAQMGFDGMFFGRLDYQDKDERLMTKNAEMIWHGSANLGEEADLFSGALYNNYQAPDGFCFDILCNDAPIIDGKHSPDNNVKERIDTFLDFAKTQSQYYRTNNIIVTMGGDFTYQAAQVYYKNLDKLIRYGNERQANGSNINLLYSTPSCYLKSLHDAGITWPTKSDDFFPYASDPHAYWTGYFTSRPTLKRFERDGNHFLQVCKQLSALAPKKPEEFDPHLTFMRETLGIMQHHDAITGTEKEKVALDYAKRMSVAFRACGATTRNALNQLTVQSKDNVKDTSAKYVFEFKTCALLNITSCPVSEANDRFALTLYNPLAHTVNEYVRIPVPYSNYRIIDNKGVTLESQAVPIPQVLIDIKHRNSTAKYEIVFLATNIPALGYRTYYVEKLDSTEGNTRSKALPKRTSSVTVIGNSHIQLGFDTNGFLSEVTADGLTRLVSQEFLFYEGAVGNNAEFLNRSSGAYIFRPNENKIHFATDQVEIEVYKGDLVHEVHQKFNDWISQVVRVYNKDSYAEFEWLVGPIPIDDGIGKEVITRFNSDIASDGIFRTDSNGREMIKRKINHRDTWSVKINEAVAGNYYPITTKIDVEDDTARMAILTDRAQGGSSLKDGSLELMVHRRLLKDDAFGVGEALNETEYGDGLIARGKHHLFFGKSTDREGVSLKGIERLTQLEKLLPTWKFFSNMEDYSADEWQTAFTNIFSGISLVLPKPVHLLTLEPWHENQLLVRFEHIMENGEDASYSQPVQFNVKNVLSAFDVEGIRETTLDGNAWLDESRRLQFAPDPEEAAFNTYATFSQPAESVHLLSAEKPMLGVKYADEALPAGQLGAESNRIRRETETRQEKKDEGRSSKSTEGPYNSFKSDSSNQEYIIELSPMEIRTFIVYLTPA

Compound | IC50 [1, 10] | Selectivity index, SI [Ki (JBMan)/Ki (AMAN-2)] [1] | Ki [2] | IC50 [3, 11] | Ki [3] | IC50 [4] | Ki [4] | IC50 [5, 12] | Ki [5] | further results
OC[C@@H](O)[C@H]1NC[C@@H](O)[C@H]1O [DIM, 1,4-dideoxy-1,4-imino-ᴅ-mannitol, reference compound] | 0.81 ± 0.03 µM | 0.6 | 0.68 µM | 0.19 ± 0.04 µM | 0.13 µM | 0.72 ± 0.03 µM | 0.38 µM | 2.55 ± 0.1 µM | 1.95 µM | –
C[C@H](O)[C@H]1NC[C@@H](O)[C@H]1O [compound 20] | 48 ± 6 µM | – | – | 30 ± 5 µM | – | 105 ± 25 µM | – | 295 ± 20 µM | – | SI [IC50 (JBMan)/IC50 (AMAN-2)] [1]: 2.2^b
C[C@H](O)[C@@H]1[C@H](O)[C@H](O)CN1Cc1ccc(I)cc1 [compound 18] | 205 ± 5 µM | – | – | 170 ± 10 µM | – | > 4000 µM | – | > 4000 µM | – | –
N-2-naphthylmethyl 1,4-imino-ᴅ-lyxitol [compound 31] | – | – | – | – | – | – | – | – | – | IC50 [6]: 845 ± 170 µM; SI [IC50 (JBMan)/IC50 (AMAN-2)] [1]: 812^b; IC50 [7]: 7.6 ± 1.1 µM; IC50 [8]: 2.4 ± 0.1 µM; IC50 [9]: 1950 ± 250 µM
C[C@@H](O)[C@@H]1[C@H](O)[C@H](O)CN1Cc1ccccc1 [compound 26] | 115 ± 18 µM | 1.4 | 58 µM | 33 ± 3.7 µM | 16.2 µM | 298 ± 30 µM | 80 µM | 505 ± 57 µM | 270 µM | –
C[C@@H](O)[C@@H]1[C@H](O)[C@H](O)CN1Cc1ccc2ccccc2c1 [compound 28] | 22 ± 4 µM | 2.4 | 18 µM | 13.5 ± 5.5 µM | 5.2 µM | 78 ± 16 µM | 44 µM | 118 ± 10 µM | 98 µM | –
C[C@@H]1[C@H](O)[C@H](O)CN1Cc1ccc(I)cc1 [compound 8] | 385 ± 15 µM | – | – | 205 ± 35 µM | – | > 4000 µM | – | > 4000 µM | – | –
C[C@H](O)[C@@H]1[C@H](O)[C@H](O)CN1Cc1ccc2ccccc2c1 [compound 19] | 1680 ± 75 µM | – | – | 860 ± 140 µM | – | > 4000 µM | – | > 4000 µM | – | –
C[C@@H]1[C@H](O)[C@H](O)CN1Cc1ccc2ccccc2c1 [compound 9] | 605 ± 35 µM | – | – | 310 ± 22 µM | – | > 4000 µM | – | > 4000 µM | – | –
C[C@@H]1[C@H](O)[C@H](O)CN1Cc1ccccc1 [compound 7] | 975 ± 25 µM | – | – | 245 ± 35 µM | – | > 4000 µM | – | > 4000 µM | – | –
C[C@H]1NC[C@@H](O)[C@H]1O [compound 10] | – | – | – | – | – | 2880 ± 275 µM | – | – | – | IC50 [1]: 415 ± 15 µM; IC50 [3]: 525 ± 25 µM; IC50 [5]: > 4000 µM
C[C@@H](O)[C@H]1NC[C@@H](O)[C@H]1O [compound 29, 6-deoxy-DIM] | 0.24 ± 0.05 µM | 0.6 | 0.19 µM | 0.12 ± 0.02 µM | 0.065 µM | 0.32 ± 0.11 µM | 0.12 µM | 0.82 ± 0.19 µM | 0.38 µM | times more potent toward AMAN-2 than DIM [1]: ~4 times; times more potent toward AMAN-2 than DIM ([1]; listed as 6-deoxy-DIM): 3.5 times
OC[C@H]1NC[C@@H](O)[C@H]1O [compound 30] | – | – | – | – | – | – | – | – | – | IC50 [6]: 30.5 ± 3 µM; SI [IC50 (JBMan)/IC50 (AMAN-2)] [1]: 5^b; IC50 [7]: 3.9 ± 0.1 µM; Ki [8]: 2.3 µM; IC50 [8]: 2.3 ± 0.1 µM; IC50 [9]: 10.5 ± 1.3 µM
C[C@H](O)[C@@H]1[C@H](O)[C@H](O)CN1Cc1ccccc1 [compound 17] | 990 ± 10 µM | – | – | 335 ± 37 µM | – | > 4000 µM | – | > 4000 µM | – | –
C[C@@H](O)[C@@H]1[C@H](O)[C@H](O)CN1Cc1ccc(I)cc1 [compound 27] | 66 ± 10 µM | 2.1 | 34 µM | 13 ± 5.5 µM | 4.2 µM | 164 ± 28 µM | 73 µM | 410 ± 80 µM | 263 µM | –
